In brackets after ≈: the same amount, converted by molar mass. Each block holds one compound with its values, some of them ahead of it.
How the values were obtained:
[1] = Aqueous solubility of the compound at pH 7.4; type: physicochemical; settings: buffer
[2] = Drug level in tumor in human U87MG cells xenografted mouse at 50 mg/kg, po after 6 hrs; type: ADME, organism-based, Neoplasm, U-87MG ATCC; design: dose 50 mg/kg, route oral; settings: read-out: Drug uptake
[3] = Drug level in tumor in human U87MG cells xenografted mouse at 50 mg/kg, iv after 6 hrs; type: ADME, organism-based, Neoplasm, U-87MG ATCC; design: dose 50 mg/kg, route intravenous; settings: read-out: Drug uptake
[4] = Plasma concentration in human U87MG cells xenografted mouse at 50 mg/kg, po after 6 hrs; type: ADME, organism-based, U-87MG ATCC; design: dose 50 mg/kg, route oral
[5] = AUC (0 to infinity) in CD1 mouse at 20 mg/kg, po; type: ADME, organism-based; design: time infinity, dose 20 mg/kg, route oral; settings: plasma
[6] = Plasma concentration in human U87MG cells xenografted mouse at 50 mg/kg, iv after 6 hrs; type: ADME, organism-based, U-87MG ATCC; design: dose 50 mg/kg, route intravenous
[7] = Plasma concentration in human NCI-H1975 cell xenografted mouse at 25 mg/kg, iv after 24 hrs; type: ADME, organism-based; design: dose 25 mg/kg, route intravenous
[8] = Tmax in CD1 mouse at 20 mg/kg, po; type: ADME, organism-based; design: dose 20 mg/kg, route oral; settings: in vivo
[9] = Drug level in tumor in human U87MG cells xenografted mouse at 50 mg/kg, po after 24 hrs; type: ADME, organism-based, Neoplasm, U-87MG ATCC; design: dose 50 mg/kg, route oral; settings: read-out: Drug uptake
[10] = Volume of distribution at steady state in CD1 mouse at 2 mg/kg, iv; type: ADME, organism-based; design: dose 2 mg/kg, route intravenous; settings: in vivo, read-out: Vdss
[11] = Drug level in tumor in human NCI-H1975 cell xenografted mouse at 25 mg/kg, iv after 24 hrs; type: ADME, organism-based, Neoplasm; design: dose 25 mg/kg, route intravenous; settings: read-out: Drug uptake
[12] = Cmax in CD1 mouse at 20 mg/kg, po; type: ADME, organism-based; design: dose 20 mg/kg, route oral; settings: in vivo
[13] = Bioavailability in CD1 mouse at 2 mg/kg, iv; type: ADME, organism-based; settings: in vivo
[14] = Drug level in tumor in human U87MG cells xenografted mouse at 50 mg/kg, iv after 24 hrs; type: ADME, organism-based, Neoplasm, U-87MG ATCC; design: dose 50 mg/kg, route intravenous; settings: read-out: Drug uptake
[15] = Drug level in tumor in human NCI-H1975 cell xenografted mouse at 25 mg/kg, iv after 6 hrs; type: ADME, organism-based, Neoplasm; design: dose 25 mg/kg, route intravenous; settings: read-out: Drug uptake
[16] = Plasma concentration in human NCI-H1975 cell xenografted mouse at 25 mg/kg, iv after 6 hrs; type: ADME, organism-based; design: dose 25 mg/kg, route intravenous
[17] = Plasma concentration in human U87MG cells xenografted mouse at 50 mg/kg, iv after 24 hrs; type: ADME, organism-based, U-87MG ATCC; design: dose 50 mg/kg, route intravenous
[18] = AUC (0 to infinity) in CD1 mouse at 2 mg/kg, iv; type: ADME, organism-based; design: time infinity, dose 2 mg/kg, route intravenous; settings: plasma
[19] = Plasma concentration in human U87MG cells xenografted mouse at 50 mg/kg, po after 24 hrs; type: ADME, organism-based, U-87MG ATCC; design: dose 50 mg/kg, route oral

solubility ([1]; read-out: solubility): 7 µg/mL (≈ 13.8 µM)
Compound: Cc1c2c(n3c1CCN(C(=O)C1(N)CC1)C[C@@H](C)[C@H](C)Nc1cc-3ccc1C(N)=O)CC(C)(C)CC2=O

solubility ([1]; read-out: solubility): > 100 µg/mL
Compound: Cc1c2c(n3c1CCN(C(=O)C(C)(C)N)C[C@@H](C)[C@H](C)Nc1cc-3ccc1C(N)=O)CC(C)(C)CC2=O

solubility ([1]; read-out: solubility): 46 µg/mL (≈ 95.9 µM)
Compound: Cc1c2c(n3c1CCN(C(=O)CN)C[C@@H](C)[C@H](C)Nc1cc-3ccc1C(N)=O)CC(C)(C)CC2=O

concentration at 6 h [2]: 309 ng/g | concentration at 6 h [3]: 967 ng/g | concentration at 6 h [4]: 53 ng/mL | AUC(0-inf) [5]: 234 ng·h/mL | concentration at 6 h [6]: 102 ng/mL | concentration at 24 h [7]: 9 ng/mL | Tmax [8]: 1 h | concentration at 24 h [9]: 242 ng/g | Vd [10]: 30 L/kg | concentration at 24 h [11]: 910 ng/g | Cmax [12]: 22 ng/mL | bioavailability [13]: 4% | concentration at 24 h [14]: 772 ng/g | concentration at 6 h [15]: 693 ng/g | solubility ([1]; read-out: solubility): 10 µg/mL (≈ 20.3 µM) | concentration at 6 h [16]: 36 ng/mL | concentration at 24 h [17]: 45 ng/mL | AUC(0-inf) [18]: 542 ng·h/mL | concentration at 24 h [19]: 6 ng/mL
Compound: Cc1c2c(n3c1CCN(C(=O)[C@H](C)N)C[C@@H](C)[C@H](C)Nc1cc-3ccc1C(N)=O)CC(C)(C)CC2=O

solubility ([1]; read-out: solubility): > 100 µg/mL
Compound: CC[C@H](N)C(=O)N1CCc2c(C)c3c(n2-c2ccc(C(N)=O)c(c2)N[C@@H](C)[C@H](C)C1)CC(C)(C)CC3=O

solubility ([1]; read-out: solubility): 38 µg/mL (≈ 81.8 µM)
Compound: CC(=O)N1CCc2c(C)c3c(n2-c2ccc(C(N)=O)c(c2)N[C@@H](C)[C@H](C)C1)CC(C)(C)CC3=O

Continued, compound first:

Compound: Cc1c2c(n3c1CCN(C(=O)[C@@H]1CCCN1)C[C@@H](C)[C@H](C)Nc1cc-3ccc1C(N)=O)CC(C)(C)CC2=O
solubility ([1]; read-out: solubility): > 100 µg/mL

Compound: Cc1c2c(n3c1CCN(C(=O)[C@H]1CCCN1)C[C@@H](C)[C@H](C)Nc1cc-3ccc1C(N)=O)CC(C)(C)CC2=O
solubility ([1]; read-out: solubility): > 100 µg/mL

Compound: Cc1c2c(n3c1CCN(C(=O)[C@H](C)O)C[C@@H](C)[C@H](C)Nc1cc-3ccc1C(N)=O)CC(C)(C)CC2=O
solubility ([1]; read-out: solubility): 60 µg/mL (≈ 121 µM)

Compound: Cc1c2c(n3c1CCN(C(=O)[C@H](C)N)CC[C@H](C)Nc1cc-3ccc1C(N)=O)CC(C)(C)CC2=O
solubility ([1]; read-out: solubility): > 100 µg/mL

Compound: Cc1c2c(n3c1CCCNC[C@H](C)Nc1cc-3ccc1C(N)=O)CC(C)(C)CC2=O
solubility ([1]; read-out: solubility): > 100 µg/mL

Compound: Cc1c2c(n3c1CCN(C(=O)[C@@H]1C[C@H](F)CN1)C[C@@H](C)[C@H](C)Nc1cc-3ccc1C(N)=O)CC(C)(C)CC2=O
solubility ([1]; read-out: solubility): 100 µg/mL (≈ 186 µM)

Compound: Cc1c2c(n3c1CCN(C(=O)C1(N)CCCC1)C[C@@H](C)[C@H](C)Nc1cc-3ccc1C(N)=O)CC(C)(C)CC2=O
solubility ([1]; read-out: solubility): 53 µg/mL (≈ 99.3 µM)

Compound: Cc1c2c(n3c1CCCN1CCC[C@H]1CNc1cc-3ccc1C(N)=O)CC(C)(C)CC2=O
solubility [1]: 2324 µg/mL (≈ 5350 µM)

Compound: Cc1c2c(n3c1CCN(C(=O)[C@@H](N)C(C)C)C[C@@H](C)[C@H](C)Nc1cc-3ccc1C(N)=O)CC(C)(C)CC2=O
solubility ([1]; read-out: solubility): > 100 µg/mL

Compound: Cc1c2c(n3c1CCN(C(=O)[C@@H](O)C(C)C)C[C@@H](C)[C@H](C)Nc1cc-3ccc1C(N)=O)CC(C)(C)CC2=O
solubility ([1]; read-out: solubility): 30 µg/mL (≈ 57.4 µM)

Reference: ChEMBL document CHEMBL1806368 (Bioorg Med Chem Lett, 2011)
